Test results as given in PubChem BioAssay (NCI).
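These data come from cells grown in 96-well plates and exposed to compound for 48 hours at five concentrations. The concentration for 50% growth inhibition is given as GI50. Definition used: TGI = concentration required for complete inhibition of growth.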

Columns and labels:
Test in all cases: growth of human tumour cells (NCI), 48 h
A498 renal = tested on: A498 renal
ACHN renal = tested on: ACHN renal
CAKI-1 renal = tested on: CAKI-1 renal
HCC-2998 colon = tested on: HCC-2998 colon
NCI-H23 lung = tested on: NCI-H23 lung
SF-539 CNS = tested on: SF-539 CNS
SK-MEL-28 melanoma = tested on: SK-MEL-28 melanoma
SK-MEL-5 melanoma = tested on: SK-MEL-5 melanoma
M14 melanoma = tested on: M14 melanoma
RPMI-8226 leukemia = tested on: RPMI-8226 leukemia

Compound | GI50 (A498 renal) | TGI (A498 renal) | GI50 (ACHN renal) | TGI (ACHN renal) | GI50 (CAKI-1 renal) | TGI (CAKI-1 renal) | GI50 (HCC-2998 colon) | TGI (HCC-2998 colon) | GI50 (NCI-H23 lung) | TGI (NCI-H23 lung) | GI50 (SF-539 CNS) | TGI (SF-539 CNS) | GI50 (SK-MEL-28 melanoma) | TGI (SK-MEL-28 melanoma) | GI50 (SK-MEL-5 melanoma) | TGI (SK-MEL-5 melanoma) | GI50 (M14 melanoma) | TGI (M14 melanoma) | GI50 (RPMI-8226 leukemia) | TGI (RPMI-8226 leukemia)
NCCOCCOCCNc1nc(-c2ccc(Cl)cc2)nc(N2CCN(c3ccccn3)CC2)n1 | 1.33 µM | 7.71 µM | 2.48 µM | 6.43 µM | 2.01 µM | 5.24 µM | 1.75 µM | 3.29 µM | 1.86 µM | 3.83 µM | 2.41 µM | 5.18 µM | 1.74 µM | 3.23 µM | 1.71 µM | 3.19 µM |  |  |  | 
CC(=O)[O-].[Mn+3].[O-]c1ccccc1C=NCCNCCN=Cc1ccccc1[O-] |  |  | > 100 µM | > 100 µM |  |  |  |  | > 100 µM | > 100 µM | > 100 µM | > 100 µM | > 100 µM | > 100 µM | > 100 µM | > 100 µM | > 100 µM | > 100 µM |  | 
COc1ncnc(S(=O)(=O)c2ccc(N=C3C(=O)N(CN4CCN(c5cc6c(cc5F)c(=O)c(C(=O)O)cn6C5CC5)CC4)c4ccc(Cl)cc43)cc2)c1OC |  |  | 10.2 µM | > 50 µM | 12.7 µM | > 50 µM | 37.9 µM | > 50 µM | > 50 µM | > 50 µM | > 50 µM | > 50 µM | > 50 µM | > 50 µM | 19.7 µM | > 50 µM | > 50 µM | > 50 µM | 13.5 µM | > 50 µM
Cc1c(-c2ccnc(N)n2)c2c(n1Cc1ccccc1)C(=O)c1ccccc1C2=O |  |  | 8.34 µM | 36.8 µM | 4.66 µM | 52.9 µM | 12.9 µM | 35.8 µM |  |  |  |  | 17.3 µM | > 100 µM | 12.8 µM | 27.8 µM | 16.2 µM | > 100 µM | > 100 µM | > 100 µM
COC(=O)CC(NC(=O)OCc1ccccc1)C(C(=O)OCc1ccccc1)C(C)(OC)OC (stereo not drawn) |  | > 100 µM |  | > 100 µM |  |  |  | > 100 µM |  | 74.7 µM |  | > 100 µM |  | > 100 µM |  | 26.7 µM |  | > 100 µM |  | 58.8 µM
C1CC2CN(CCCN3CCOCC3)C(C1)O2 (stereo not drawn) |  | > 100 µM |  | > 100 µM |  | > 100 µM |  |  |  | > 100 µM |  | > 100 µM |  | > 100 µM |  | > 100 µM |  | > 100 µM |  | > 100 µM
Cc1ccc(N=Nc2c(O)ccc3ccccc23)cc1 |  | > 100 µM |  | > 100 µM |  | > 100 µM |  |  |  | > 100 µM |  |  |  | > 100 µM |  | > 100 µM |  | > 100 µM |  | > 100 µM
COc1ccc(C(=O)C(CC2C(=O)NC(=O)NC2=O)c2ccc(OC)cc2)cc1 (stereo not drawn) |  | > 100 µM |  | > 100 µM |  | > 100 µM |  | > 100 µM |  | > 100 µM |  | > 100 µM |  | > 100 µM |  | > 100 µM |  | > 100 µM |  | 
COc1cc(C)c(C2NC(=O)c3ccccc3N2)cc1C (stereo not drawn) |  | 4.77 µM |  | > 95.4 µM |  | 16.2 µM |  | 25.9 µM |  | > 70.2 µM |  | 0.734 µM |  | > 100 µM |  | 5.49 µM |  | 8.54 µM |  | 
CCOC(=O)N1CCc2cc(OC)c(OC)cc2/C1=C\c1ccc(OC)c(OC)c1 |  | 68.5 µM |  | 94 µM |  |  |  | > 100 µM |  | > 100 µM |  | 59.2 µM |  | > 100 µM |  |  |  | > 10 µM |  | > 100 µM
O=C(NCCc1ccccn1)OCc1nc2nc(Cl)nc(N3CCOCC3)c2[nH]1 | 2.64 µM | 10.4 µM | 1.29 µM | 2.55 µM | 1.36 µM | 3.04 µM | 1.74 µM | 3.33 µM | 1.77 µM | 4.14 µM | 1.5 µM | 2.85 µM | 1.67 µM | 3.32 µM | 2.1 µM | 4.54 µM |  |  | 1.62 µM | 5.63 µM
COC(=O)C1C(O)C(C)C(O)C(C)C=C(C)C2=C3C(=C(C)C(=O)c4c(O)c(c(C)c(OC(C)=O)c43)NC(=O)C(C)=C/C=C\C(C)C(O)C(C)C1O)OCO2 (stereo not drawn) |  | 99.4 µM |  | > 100 µM |  |  |  | > 100 µM |  | 63 µM |  | > 100 µM |  | 47.3 µM |  | 39.4 µM |  | 68.9 µM |  | 55.3 µM
CCOc1c(N=Nc2ccccc2Cl)c(-c2ccccc2)nn1C(=S)S |  |  |  | > 100 µM |  | 70.3 µM |  |  |  | > 100 µM |  | 50.4 µM |  | > 100 µM |  | 57.9 µM |  | > 100 µM |  | 
COC(=O)c1c2c(cc3c1CC1(Cc4cc5c(c(C(C)=O)c4C1)CCC5)C3)CCC2 (stereo not drawn) |  |  |  | > 100 µM |  | > 100 µM |  | > 100 µM |  | > 100 µM |  | > 100 µM |  | > 100 µM |  | > 100 µM |  | > 100 µM |  | 
O=S(=O)(NCn1ccc2ccccc21)c1ccccc1 |  | > 100 µM |  | > 100 µM |  |  |  | > 100 µM |  | > 100 µM |  | > 100 µM |  | > 100 µM |  | > 100 µM |  | > 100 µM |  | 47.2 µM
CC(=O)OCC(=O)[C@@]12OC(C)(C)O[C@@H]1C[C@H]1[C@@H]3CC(C=O)=C4C=C(OCCCl)CC[C@]4(C)[C@@]3(F)[C@@H](O)C[C@@]12C |  | 57.9 µM |  | > 100 µM |  |  |  | 29.5 µM |  | 42.2 µM |  | 80.9 µM |  | 80.1 µM |  |  |  | 61.7 µM |  | > 100 µM
CC(=O)O[C@]1(C)OC(=O)[C@@H](CC(C)C)N1[N+](=O)[O-] |  | > 100 µM |  | > 100 µM |  |  |  | > 100 µM |  | > 100 µM |  | > 100 µM |  | > 100 µM |  | > 100 µM |  | > 100 µM |  | > 100 µM
Cc1nn2c(/C=C3/C(=O)Nc4cc(Cl)ccc43)c(-c3ccccc3)nc2s1 | 15.5 µM | 72 µM | 1.54 µM | 3.08 µM | 1.87 µM | 4.38 µM | > 100 µM | > 100 µM | 3.68 µM | > 100 µM | 1.71 µM | 3.46 µM |  |  | 3.17 µM | > 100 µM | 6.54 µM | > 100 µM |  | 
COc1cc2c(cc1OCCCCCCN1CCN(CC(=O)Nc3ccc(Cl)cc3C(=O)c3ccccc3Cl)CC1)N=CC1CCCN1C2=O (stereo not drawn) | 0.535 µM | 1 µM | 0.3 µM | 0.765 µM | 0.151 µM | 0.421 µM | 0.173 µM | 0.314 µM | 0.198 µM | 0.468 µM | 0.289 µM | 0.74 µM | 0.185 µM | 0.332 µM | 0.513 µM | 0.942 µM |  |  |  | 
c1cncc(CNCc2cccnc2)c1 |  | > 100 µM |  | > 100 µM |  | > 100 µM |  |  |  | > 100 µM |  | > 100 µM |  | > 100 µM |  | > 100 µM |  | > 100 µM |  | > 100 µM
C1CC[N-]CC1.CC(=N\O)/C(C)=N/O.CC(=N\O)/C(C)=N/O.OC1[CH-]CCCC1.[Co+2] | > 100 µM | > 100 µM | 76.3 µM | > 100 µM | 34.7 µM | > 100 µM |  |  |  |  | 25.5 µM | 71.1 µM | 32.5 µM | > 100 µM | 34.6 µM | > 100 µM | 52.8 µM | > 100 µM | 42.4 µM | > 100 µM
CN(C)CCSS(=O)(=O)O |  | > 100 µM |  | > 100 µM |  | > 100 µM |  |  |  | > 100 µM |  | > 100 µM |  | > 100 µM |  | > 100 µM |  | > 100 µM |  | > 100 µM
C[Si](C)(C)/C=C\CCO |  | > 100 µM |  | > 100 µM |  |  |  | > 100 µM |  | > 100 µM |  | > 100 µM |  | > 100 µM |  | > 100 µM |  | > 100 µM |  | > 100 µM
N.N.N.N.N.O=[N+]([O-])[O-].[Co+3].[O-][Cl+3]([O-])([O-])[O-] | > 100 µM | > 100 µM | > 100 µM | > 100 µM |  |  | > 100 µM | > 100 µM | > 100 µM | > 100 µM | > 100 µM | > 100 µM | > 100 µM | > 100 µM | > 100 µM | > 100 µM | > 100 µM | > 100 µM | > 100 µM | > 100 µM
CC(C)(C)OC(=O)NCCCn1c2c(c3ccccc3c1=O)C(=O)c1ccccc1-2 | 46.1 µM | > 100 µM | 14.3 µM | 67.9 µM | 6.86 µM | 22.2 µM |  |  | 13.4 µM | 28.8 µM | 10.3 µM | 29.3 µM |  |  | 35.2 µM | > 100 µM | > 100 µM | > 100 µM |  | 
CN(C)c1nc2ccccc2c2c1c1c(n2Cc2ccccc2)-c2ccccc2C1=O | > 100 µM | > 100 µM | > 100 µM | > 100 µM | > 100 µM | > 100 µM |  |  | > 100 µM | > 100 µM | > 100 µM | > 100 µM | > 100 µM | > 100 µM | 39.1 µM | > 100 µM | > 100 µM | > 100 µM | > 100 µM | > 100 µM
COC(=O)C1=C(C(=O)OC)C2(C)C=CC1O2 (stereo not drawn) |  | 54 µM |  | 18.7 µM |  |  |  | 29.8 µM |  | 32.4 µM |  | 33 µM |  | 29.5 µM |  | 32.8 µM |  | 32.5 µM |  | 4.04 µM
O=c1[nH]c2ccccc2n1CCCN1CCC(n2c(=O)[nH]c3cc(Cl)ccc32)CC1 |  | 42.9 µM |  | 32.9 µM |  | 50.6 µM |  | 30.4 µM |  | 31.2 µM |  |  |  | 31.1 µM |  | 29.1 µM |  | 29.9 µM |  | 57.8 µM
